The values below come from PubChem BioAssay (NCI).

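Assay format: 96-well plates, 48-hour exposure. GI50 = concentration required for 50% inhibition of growth. At the TGI there is no net growth.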

Experiment in all cases: NCI-60 cell line screen, 48 h
In test [1] the test system is SK-OV-3 ovarian.
In test [2] the test system is SW-620 colon.
Test [3] relates to EKVX NSCLC.
Test [4] deals with MDA-MB-435.
For test [5], the system named is HCC-2998 colon.
In test [6] the test system is HT29 colon.
For test [7], the system named is HCT-116 colon.
Test [8] has as its system HOP-62 NSCLC.
In test [9] the test system is M14 melanoma.
For test [10], the system named is SF-268 CNS.

As for `Nc1n[nH]c(N)c1N=Nc1ccc(O)cc1`, the GI50 was 49.2 µM in test [1]; 26.3 µM in test [2]; 22 µM in [3]; 17.1 µM in [4]; 29.4 µM in test [5]; 29.7 µM in test [6]. The GI50 was 18.9 µM in test [7], 31.8 µM in test [8], 15.9 µM in [9] and 20.5 µM in test [10]. In addition, the TGI is over 100 µM in [1]; 84.8 µM in [2]; 67.8 µM in test [3]; 59.4 µM in [4]; over 100 µM in [5]; over 100 µM in [6]. Also, the TGI in test [7] is 89.9 µM; in [8], over 100 µM; in [9], over 100 µM; in [10] it was 82.6 µM.

Consider `O=c1cccc(C#CC#CCCCO)o1`, for which the GI50 in test [1] was 18.5 µM; in test [2], 2.67 µM; in [3], 3 µM; in test [4] it was 4.99 µM; in [5] it was 2.58 µM; in [6], 4.66 µM. Further, the GI50 in test [7] is 3.06 µM; in [8], 6.26 µM; in test [9], 4.76 µM; in test [10], 7.71 µM. Further, the TGI in [1] is 45.4 µM; in test [3], 7.6 µM; in test [4], 13.6 µM; in test [5] it was 7.38 µM; in test [6], over 100 µM; in test [7], 8.49 µM. In addition, the TGI in test [8] was 12.2 µM; in test [9], 21.5 µM; in [10], 18.5 µM.

Regarding `O=C(O)COc1ccc(C(=O)/C(SS/C(C(=O)c2ccc(OCC(=O)O)c(Cl)c2Cl)=C2\C=C(c3ccc(Br)cc3)SS2)=C2/C=C(c3ccc(Br)cc3)SS2)c(Cl)c1Cl`, the TGI in test [1] is over 89.5 µM; in test [2], 31.2 µM; in [3] it was over 100 µM; in test [4], over 100 µM; in test [5], over 42.8 µM; in test [6], over 100 µM. Further, the TGI in [7] was 22.1 µM; in [8], 54.1 µM; in test [9], over 91.6 µM; in [10] it was 34 µM.

Consider `CCOC1OC(=O)[C@H]2[C@@H]1[C@@H]1CC[C@H]2O1` (some centres undefined), for which the GI50 was over 100 µM in [1]; over 100 µM in [2]; over 100 µM in test [3]; over 100 µM in test [4]; 13.4 µM in test [5]; 24.8 µM in test [6]. Besides, the GI50 in [7], in test [8], in [9] and in test [10] was over 100 µM throughout. Further, the TGI in test [1] is over 100 µM; in [2] it was over 100 µM; in test [3], over 100 µM; in [4] it was over 100 µM; in test [5] it was 29.5 µM; in test [6], over 76.3 µM. The TGI in [7], in test [8], in [9] and in test [10] was over 100 µM each time.

Turning to `CC1=C(C(=O)Nc2ccc(F)c(Cl)c2)C(c2ccccc2O)NC(=O)N1` (centres undefined), the GI50 was over 100 µM in test [1]; over 100 µM in test [2]; over 100 µM in test [3]; over 100 µM in [4]; over 100 µM in test [5]; 41.4 µM in [6]. For the same compound, the GI50 is 51.7 µM in [7], over 100 µM in [8], 69.9 µM in [9] and over 100 µM in test [10]. The TGI in test [1], in test [2], in test [3], in test [4], in test [5] and in test [6] was over 100 µM each time. In addition, the TGI in test [7], in test [8], in [9] and in test [10] was over 100 µM each time.

As to `O=C1/C(=C/c2cccc(Br)c2)COc2ccc(O)c(O)c21`, the GI50 is 3.12 µM in [1]; 1.06 µM in [2]; 1.78 µM in test [3]; 1.23 µM in [4]; 1.67 µM in [5]; 1.83 µM in [6]. In addition, the GI50 in test [7] is 1.08 µM; in [8], 1.84 µM; in test [9], 1.6 µM; in [10], 1.63 µM. Moreover, the TGI stood at 10.6 µM in [1]; 3.52 µM in test [2]; 3.52 µM in [3]; 2.76 µM in test [4]; 3.1 µM in test [5]; 3.62 µM in [6]. Further, the TGI in [7] is 2.47 µM; in test [8], 3.74 µM; in [9], 3.47 µM; in [10], 4.08 µM.

Take `NS(=O)(=O)c1cccc(-c2ccc3c(NC(=O)C4CC4)n[nH]c3c2)c1`: the GI50 in test [1] was 9.16 µM; in test [2] it was over 15.1 µM; in [3] it was over 25 µM; in [4] it was 5.31 µM; in [5], over 22.1 µM; in [6], over 14.4 µM. The GI50 in test [7] is over 16.9 µM; in [8], over 14.2 µM; in test [9] it was 12.3 µM; in test [10], over 21.6 µM. The TGI in [1] is 23.6 µM; in test [2], over 25 µM; in test [3], over 25 µM; in [4], 15.3 µM; in test [5], over 25 µM; in test [6] it was over 25 µM. For the same compound, the TGI in test [7] is over 25 µM; in test [8], 24.7 µM; in test [9], over 25 µM; in [10] it was over 25 µM.

Take `C=C1C(=O)O[C@H]2[C@H]1CC/C(CNC(=O)/C=C/c1ccccc1)=C\CC[C@@]1(C)O[C@@H]21`: the GI50 in test [1] was 13.2 µM; in [2], 0.577 µM; in [3], 1.65 µM; in test [4] it was 1.35 µM; in [5] it was 1.78 µM; in test [6] it was 0.754 µM. Besides, the GI50 in test [7] is 0.465 µM; in [8], 3.37 µM; in test [9], 1.15 µM; in [10], 2.86 µM. Also, the TGI in [1] was found to be 26 µM; in test [2], 2.32 µM; in test [3], 4.51 µM; in [4] it was 6.41 µM; in test [5], 3.31 µM; in test [6], 3.04 µM. The TGI was determined as 1.75 µM in test [7], 14 µM in test [8], 3.23 µM in test [9] and 8.88 µM in [10].
